Reference: ChEMBL document CHEMBL4421717, “Antagonists and agonists of bitter taste receptors and uses thereof” (2012)
Calls of active or inactive are those of the source. The calls are words filed in the database; no cut-off is given here.

Legend:
Format in all cases: functional, cell-based
[1] = target: T1, Taste receptor type 2 member 13 (Homo sapiens) (UniProt Q9NYV9); experiment: Activity at recombinant human N-terminal rat ST3 receptor-fused TAS2R13 expressed in HEK293T cells co-expressing Galpha16gust44 assessed as effect on denatonium benzoate-induced intracellular calcium level at 100 uM by FLIPR assay
T1 sequence (whole entry): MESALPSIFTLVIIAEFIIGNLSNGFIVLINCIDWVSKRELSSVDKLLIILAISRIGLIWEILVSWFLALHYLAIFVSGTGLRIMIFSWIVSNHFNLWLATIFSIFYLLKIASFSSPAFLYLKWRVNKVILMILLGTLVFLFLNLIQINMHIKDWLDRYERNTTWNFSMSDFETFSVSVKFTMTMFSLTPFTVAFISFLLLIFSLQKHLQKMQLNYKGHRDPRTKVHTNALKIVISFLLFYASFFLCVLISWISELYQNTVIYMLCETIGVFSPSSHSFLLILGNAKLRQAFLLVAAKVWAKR

[2] = target: T2, Taste receptor type 2 member 9 (Homo sapiens) (UniProt Q9NYW1); experiment: Activity at recombinant human N-terminal rat ST3 receptor-fused TAS2R9 expressed in HEK293T cells co-expressing Galpha16gust44 assessed as effect on ofloxacin-induced intracellular calcium level at 100 uM by FLIPR assay
T2 sequence (whole entry): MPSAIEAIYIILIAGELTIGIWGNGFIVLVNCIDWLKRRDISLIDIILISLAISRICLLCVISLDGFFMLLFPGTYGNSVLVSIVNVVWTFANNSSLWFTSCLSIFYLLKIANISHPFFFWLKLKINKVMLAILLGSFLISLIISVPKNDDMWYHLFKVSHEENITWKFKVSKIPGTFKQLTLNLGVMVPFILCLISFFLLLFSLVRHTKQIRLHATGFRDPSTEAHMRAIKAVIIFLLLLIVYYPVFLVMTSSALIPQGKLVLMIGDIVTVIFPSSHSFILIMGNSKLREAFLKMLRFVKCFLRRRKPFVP

[3] = target: T3, Taste receptor type 2 member 10 (Homo sapiens) (UniProt Q9NYW0); experiment: Activity at recombinant human N-terminal rat ST3 receptor-fused TAS2R10 expressed in HEK293T cells co-expressing Galpha16gust44 assessed as effect on strychnine-induced intracellular calcium level at 100 uM by FLIPR assay
T3 sequence (whole entry): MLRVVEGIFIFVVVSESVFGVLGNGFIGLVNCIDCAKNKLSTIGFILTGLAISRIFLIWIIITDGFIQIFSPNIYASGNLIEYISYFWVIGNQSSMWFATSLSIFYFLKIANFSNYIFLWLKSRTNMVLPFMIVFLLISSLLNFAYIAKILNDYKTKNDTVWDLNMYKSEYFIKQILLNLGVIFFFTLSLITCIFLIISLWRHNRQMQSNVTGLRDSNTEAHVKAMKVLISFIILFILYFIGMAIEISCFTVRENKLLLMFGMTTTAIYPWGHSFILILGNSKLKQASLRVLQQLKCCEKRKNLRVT

[4] = target: T4, Taste receptor type 2 member 1 (Homo sapiens) (UniProt Q9NYW7); experiment: Activity at recombinant human N-terminal rat ST3 receptor-fused TAS2R1 expressed in HEK293T cells co-expressing Galpha16gust44 assessed as effect on trans-isocohumulone-induced intracellular calcium level at 100 uM by FLIPR assay
T4 sequence (whole entry): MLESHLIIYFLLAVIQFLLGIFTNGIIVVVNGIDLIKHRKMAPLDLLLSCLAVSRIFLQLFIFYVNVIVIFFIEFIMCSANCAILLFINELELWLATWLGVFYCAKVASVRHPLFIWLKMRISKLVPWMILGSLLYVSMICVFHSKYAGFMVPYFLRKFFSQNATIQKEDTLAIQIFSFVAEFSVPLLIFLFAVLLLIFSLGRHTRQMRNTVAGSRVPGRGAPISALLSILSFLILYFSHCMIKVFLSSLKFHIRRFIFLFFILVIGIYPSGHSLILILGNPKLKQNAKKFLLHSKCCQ

[5] = target: T5, Taste receptor type 2 member 4 (Homo sapiens) (UniProt Q9NYW5); experiment: Activity at recombinant human N-terminal rat ST3 receptor-fused TAS2R4 expressed in HEK293T cells co-expressing Galpha16gust44 assessed as effect on colchicine-induced intracellular calcium level at 100 uM by FLIPR assay
T5 sequence (whole entry): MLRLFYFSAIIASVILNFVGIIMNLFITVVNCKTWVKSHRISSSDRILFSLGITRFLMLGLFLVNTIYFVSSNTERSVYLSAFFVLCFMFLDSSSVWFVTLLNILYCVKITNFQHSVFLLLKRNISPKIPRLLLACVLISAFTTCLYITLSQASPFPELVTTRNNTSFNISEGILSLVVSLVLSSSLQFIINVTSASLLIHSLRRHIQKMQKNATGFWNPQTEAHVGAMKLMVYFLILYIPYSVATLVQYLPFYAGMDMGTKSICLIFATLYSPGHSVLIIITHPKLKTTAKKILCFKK

[6] = target: T3, Taste receptor type 2 member 10 (Homo sapiens); experiment: Agonist activity at recombinant human N-terminal rat ST3 receptor-fused TAS2R10 expressed in HEK293T cells co-expressing Galpha16gust44 assessed as effect on intracellular calcium level at 100 uM by FLIPR assay
[7] = target: T6, Taste receptor type 2 member 14 (Homo sapiens) (UniProt Q9NYV8); experiment: Agonist activity at recombinant human N-terminal rat ST3 receptor-fused TAS2R14 expressed in HEK293T cells co-expressing Galpha16gust44 assessed as effect on intracellular calcium level at 100 uM by FLIPR assay
T6 sequence (whole entry): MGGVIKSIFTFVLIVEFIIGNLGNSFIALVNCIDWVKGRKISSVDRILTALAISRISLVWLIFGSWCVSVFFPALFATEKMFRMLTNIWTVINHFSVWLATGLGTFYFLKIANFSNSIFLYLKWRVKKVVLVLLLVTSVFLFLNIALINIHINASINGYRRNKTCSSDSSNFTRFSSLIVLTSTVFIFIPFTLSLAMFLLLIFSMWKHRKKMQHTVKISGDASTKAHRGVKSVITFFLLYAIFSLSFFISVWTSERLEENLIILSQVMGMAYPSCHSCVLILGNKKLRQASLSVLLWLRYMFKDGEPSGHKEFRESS

[8] = target: T7, Taste receptor type 2 member 20 (Homo sapiens) (UniProt P59543); experiment: Activity at recombinant human N-terminal rat ST3 receptor-fused TAS2R49 expressed in HEK293T cells co-expressing Galpha16gust44 assessed as effect on cromolyn-induced intracellular calcium level at 100 uM by FLIPR assay
T7 sequence (whole entry): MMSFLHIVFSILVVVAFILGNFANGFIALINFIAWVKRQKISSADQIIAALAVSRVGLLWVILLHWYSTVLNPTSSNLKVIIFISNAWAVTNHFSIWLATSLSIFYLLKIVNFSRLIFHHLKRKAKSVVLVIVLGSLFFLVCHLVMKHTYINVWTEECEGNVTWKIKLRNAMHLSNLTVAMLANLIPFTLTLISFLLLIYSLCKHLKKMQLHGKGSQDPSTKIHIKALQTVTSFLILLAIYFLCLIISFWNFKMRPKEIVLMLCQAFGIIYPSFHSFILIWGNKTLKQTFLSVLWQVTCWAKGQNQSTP

SMILES | Activity [1] | Activity [2] | Activity [3] | Activity [4] | Activity [5] | Activity [6] | Activity [7] | Activity [8]
C/C1=C\C[C@H](O)[C@@H](C)C[C@H]2OC(=O)[C@@H](C)C2CC1 (stereo partly specified) | inactive | inactive | inactive | inactive | inactive | Active | Active | inactive
C/C1=C\C[C@H](O)/C(C)=C/[C@H]2OC(=O)[C@@H](C)C2CC1 (stereo partly specified) | inactive | inactive | inactive | inactive | inactive | Active | Active | inactive
